# Assays:
# Parameters in all cases: key: “+” = active; “−” = inactive; “pr” = promoting
# [1] = target: T1, Aβ40 (Homo sapiens, UniProt P05067); assay: mass spectroscopy (MS) assay, binding to Aβ; conditions: 200 μM test compound, 20 μM solubilized Aβ40, pH 7.4; ability to bind to Aβ
# T1 construct: 200 μM of a test compound and 20 μM of solubilized Aβ40
# Experimental: Test compounds were purchased from commercial sources or synthesized and screened by thioflavin T fluorescent assay (“ThT assay”). Alternatively, one could screen test compounds by circular dichroism (“CD”), electron microscopy (“EM”), or mass spectroscopy (“MS”) assays.
# And in the mass spectroscopy (“MS”) assay, samples were prepared as aqueous solutions containing 20% ethanol, 200 μM of a test compound and 20 μM of solubilized Aβ40. The pH value of each sample was adjusted to 7.4 (±0.2) by addition of 0.1% aqueous sodium hydroxide. The solutions were then analyzed by electrospray ionization mass spectroscopy using a Waters ZQ 4000 mass spectrometer. Samples were introduced by direct infusion at a flow-rate of 25 μL/min within 2 hr. after sample preparation. The source temperature was kept at 70° C. and the cone voltage was 20 V for all the analysis. Data were processed using Masslynx 3.5 software.
# [2] = target: T2, Aβ (Homo sapiens, UniProt P05067); assay: electron microscopy (EM) assay, inhibition of fibrillogenesis; type: biochemical; conditions: soluble Aβ
# T2 construct: Aβ peptide: Aβ (1-40) 95% purity (American Peptide Company, Inc, Sunnyvale, Calif. USA)
# Excerpt: (§1) Test compounds were purchased from commercial sources or synthesized and screened by thioflavin T fluorescent assay (“ThT assay”). Alternatively, one could screen test compounds by circular dichroism (“CD”), electron microscopy (“EM”), or mass spectroscopy (“MS”) assays. The MS assay gives data on the ability of compounds to bind to an amyloid protein, whereas the ThT, EM, and CD assays give data on inhibition of fibrillogenesis.
# Similarly, in the electron microscopy (“EM”) assay, each sample was sonicated for 1 min to disrupt large clumps before testing. The sample (5-μL aliquot) was placed on freshly cleaved mica and allowed to air dry. The mica was placed in a Balzers High-vacuum, Freeze-Etch Unit (model 301), shadowed with platinum (30° angle), and coated with a carbon film. The replica was removed from the mica by flotation and transferred onto a 300-mesh copper grid. Samples were examined using a Joel 2000 FX transmission electron microscope. […]
# [3] = target: T2, Aβ; assay: circular dichroism (CD) assay, inhibition of fibrillogenesis; type: biochemical; conditions: soluble Aβ, 37° C., 190-240 nm
# Excerpt: as §1
# In the circular dichroism (“CD”) assay, samples were transferred to 0.1-cm path-length quartz cuvettes and CD scans were taken using a Jasco J-715 spectropolarimeter. Readings were taken at 37° C., between 190 and 240 nm, with a resolution of 0.1 nm and a bandwidth of 1 nm. […]
# T1 sequence (P05067 672-711 limits assumed): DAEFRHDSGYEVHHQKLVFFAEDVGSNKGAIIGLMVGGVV
# T2 sequence (P05067 672-711 limits assumed): as above
Structure (SMILES),MS Assay [1],EM [2],CD [3]
Cl.N=C(N)c1ccc(OCCCOc2ccc(CCC(=O)O)cc2)cc1 [Compound 40],−,,
N=C(Nc1ccc(OCCCCCOc2ccc(NC(=N)c3ccccc3)cc2)cc1)c1ccccc1 [Compound 134],+,−,+
Br.N=C(N)c1ccc(OCCCCCCCCBr)cc1 [Compound 44],+,,
COc1cc(C2=NCCN2)ccc1OCCCOc1ccc(C2=NCCN2)cc1OC [Compound 85],−,,
N=C(N)c1ccc(OCCCCCCCCCCCCOc2ccc(C(=N)N)cc2Br)c(Br)c1 [Compound 76],+,+,−
COc1cc(C(=N)N)ccc1OC/C=C\COc1ccc(C(=N)N)cc1OC [Compound 86],+,,
COc1cc(NC(=N)N)ccc1-c1ccc(-c2ccc(NC(=N)N)cc2OC)o1 [Compound 121],+,+,−
N=C(N)c1ccc(-c2coc(-c3ccc(C(=N)N)cc3)c2)cc1 [Compound 120],+,+,−
CC(C)NC(=N)c1cccc(COc2ccc3ccc(OCc4cccc(C(=N)NC(C)C)c4)cc3c2)c1 [Compound 91],+,,
COC(=O)C(CCOc1ccc(C(=N)NO)cc1)CCOc1ccc(C(=N)NO)cc1 (centres unmarked) [Compound 95],+,,
Cl.Cl.N=C(N)Nc1ccc(OCCCCCOc2ccc(NC(=N)N)cc2)cc1 [Compound 49],+,,
N=C(N)c1ccc(OCCCCCCCCCBr)cc1 [Compound 43],+,,
N=C(N)c1ccc(COc2ccc([N+](=O)[O-])cc2)cc1 [Compound 67],−,,
CC(C)NC(=N)c1ccc(-c2ccc(-c3ccc(C(=N)NC(C)C)cc3)o2)cc1 [Compound 100],+,,
Cl.Cl.N=C(N)Cc1ccc(OCCCCCOc2ccc(CC(=N)N)cc2)cc1 [Compound 48],+,,
CCC(C)NC(=N)c1ccc(OCCCCCOc2cccc(C3=NC4C=C(C(=N)NC(C)C)C=CC4N3)c2)cc1.Cl.Cl.Cl (centres unmarked) [Compound 96],+,,
c1cc2c(cc1C1=NCCN1)c1cc(C3=NCCN3)ccc1n2CCCCCn1c2ccc(C3=NCCN3)cc2c2cc(C3=NCCN3)ccc21 [Compound 63],+,,
Cl.N=C(N)c1ccc(OCCCCCCCCC(=O)O)cc1 [Compound 45],+,,
N=C(N)c1ccc(NC(=O)CC(=O)Nc2ccc(C(N)N)cc2)cc1 [Compound 98],+,,
Cl.N=C(N)c1ccc(OCCCCCCCC(=O)O)cc1 [Compound 42],+,,
N=C(N)c1cccc(OCCC(O)COc2cccc(C(=N)N)c2)c1 (centres unmarked) [Compound 79],+,,
CC(=N)Nc1ccc(-c2ccc(-c3ccc(NC(C)=N)cc3C)o2)c(C)c1 [Compound 135],+,,
CC(C)NC(=N)c1ccc(COc2ccc3ccc(OCc4ccc(C(=N)NC(C)C)cc4)cc3c2)cc1 [Compound 90],+,,

# The remaining lines, values ahead:
MS Assay [1],EM [2],CD [3],Structure (SMILES)
+,+,−,N=C(N)c1ccc2nc(-c3ccc(C4CC4c4ccc(-c5nc6ccc(C(=N)N)cc6[nH]5)cc4)cc3)[nH]c2c1 (centres unmarked) [Compound 115]
+,,,c1cc2[nH]c(-c3ccc4[nH]c(CCc5nc6cc(-c7nc8cc(C9=NCCN9)ccc8[nH]7)ccc6[nH]5)nc4c3)nc2cc1C1=NCCN1 [Compound 87]
+,,,COc1ccc2c(c1)[nH]c1cc(C(=N)N)ccc12 [Compound 59]
+,+,−,Cn1c(-c2nc3ccc(C(=N)N)cc3[nH]2)ccc1-c1nc2ccc(C(=N)N)cc2[nH]1 [Compound 103]
+,+,−,COc1ccc(-c2ccc(-c3ccc(NC(=N)N)cc3)o2)cc1 [Compound 123]
+,,,N=C(N)c1ccc2[nH]c(-c3ccc4c(=O)cc(-c5ccccc5)oc4c3)nc2c1 [Compound 119]
+,+,−,N=C(N)c1ccc2nc(-c3ccc(Cc4ccc(-c5nc6ccc(C(=N)N)cc6[nH]5)cc4)cc3)[nH]c2c1 [Compound 114]
+,,,N=C(N)c1ccc2nc(-c3ccc(-c4ccc(-c5nc6ccc(C(=N)N)cc6[nH]5)cc4)cc3)[nH]c2c1 [Compound 113]
+,+,−,N=C(N)c1ccc(-c2cc(-c3cccc(C(=N)N)c3)no2)cc1 [Compound 83]
+,,,N=C(N)c1ccc(OCCCCCOc2ccc(-c3nc4cc(C(=N)N)ccc4[nH]3)cc2)cc1 [Compound 94]
+,+,−,CCc1ccc(CCc2ccc(-c3nc4ccc(C(=N)N)cc4[nH]3)cc2)cc1 [Compound 125]
+,,,N=C(N)c1ccc2[nH]c(Cc3nc4cc([N+](=O)[O-])ccc4[nH]3)nc2c1 [Compound 80]
−,,,N=C(N)c1ccc(-c2cc(-c3cccc(C(=N)N)c3)on2)cc1 [Compound 82]
+,,,N=C(N)c1ccc2nc(-c3ccc(-c4ccc([N+](=O)[O-])cc4)o3)[nH]c2c1 [Compound 111]
+,,,N=C(Nc1ccc(-c2ccc(-c3ccc(NC(=N)c4ccccn4)cc3O)o2)c(O)c1)c1ccccn1 [Compound 136]
+,,,N=C(N)c1ccc(-c2ccc(-c3ccc(C(=N)N)cc3)o2)cc1 [Compound 99]

MS Assay [1],EM [2],CD [3],Structure (SMILES)
+,,,Cc1c(-c2ccc(C(=N)N)cc2)oc(-c2ccc(C(=N)N)cc2)c1C [Compound 57]
+,,,CCCCNC(=N)c1ccc2nc(-c3ccc(CCc4ccc(-c5nc6ccc(C(=N)NCCCC)cc6[nH]5)cc4)cc3)[nH]c2c1 [Compound 89]
+,,,Cn1c(-c2ccc(C(=N)N)cc2)ccc1-c1ccc(C(=N)N)cc1 [Compound 108]
+,,,N=C(N)c1ccc2nc(-c3ccc(CCc4ccc(F)cc4)cc3)[nH]c2c1 [Compound 126]
+,,,N=C(N)c1ccc(-c2ccc(-c3nc4cc(C(=N)N)ccc4o3)o2)cc1 [Compound 129]
+,,,Cc1cc(-c2nc3cc(C(=N)N)ccc3[nH]2)c(C)cc1-c1nc2cc(C(=N)N)ccc2[nH]1 [Compound 73]
−,,,Cc1cc(C(=N)N)ccc1-c1ccc(-c2ccc(C(=N)N)cc2C)o1 [Compound 118]
+,,,Cc1cc(C(=N)N)ccc1-c1ccc(-c2nc3ccc(C(=N)N)cc3[nH]2)o1 [Compound 131]
−,,,N=C(N)c1cccc(OCc2ccccc2)c1 [Compound 68]
+,,,Cn1c(CCCCc2nc3cc(C(=N)N)ccc3n2C)nc2cc(C(=N)N)ccc21 [Compound 97]
+,,,Cc1nc(-c2ccc(C(=N)N)cc2)cc(-c2ccc(C(=N)N)cc2)n1 [Compound 106]
−,,,N=C(N)c1ccc(-c2cc3ccc(C(=N)N)cc3[nH]2)cc1 [Compound 47]
+,,,N=C(N)c1ccc2[nH]c(-c3ccccc3)nc2c1 [Compound 81]
+,,,N=C(N)c1ccc2nc(-c3ccc4cc(-c5nc6ccc(C(=N)N)cc6[nH]5)ccc4c3)[nH]c2c1 [Compound 110]
+,,,N=C(N)c1cccc(COc2cccc3c(OCc4cccc(C(=N)N)c4)cccc23)c1 [Compound 77]

# Reference: patent US20040147531A1, “Amidine derivatives for treating amyloidosis” (priority 2001, published 2004)
